Active and inactive are the calls of the source.
Assays:
[1] = molecular target: T1, Amine oxidase [flavin-containing] B (Homo sapiens, UniProt P27338); assay: biochemical; assay type: cell-based, BTI
T1 sequence (P27338 whole entry): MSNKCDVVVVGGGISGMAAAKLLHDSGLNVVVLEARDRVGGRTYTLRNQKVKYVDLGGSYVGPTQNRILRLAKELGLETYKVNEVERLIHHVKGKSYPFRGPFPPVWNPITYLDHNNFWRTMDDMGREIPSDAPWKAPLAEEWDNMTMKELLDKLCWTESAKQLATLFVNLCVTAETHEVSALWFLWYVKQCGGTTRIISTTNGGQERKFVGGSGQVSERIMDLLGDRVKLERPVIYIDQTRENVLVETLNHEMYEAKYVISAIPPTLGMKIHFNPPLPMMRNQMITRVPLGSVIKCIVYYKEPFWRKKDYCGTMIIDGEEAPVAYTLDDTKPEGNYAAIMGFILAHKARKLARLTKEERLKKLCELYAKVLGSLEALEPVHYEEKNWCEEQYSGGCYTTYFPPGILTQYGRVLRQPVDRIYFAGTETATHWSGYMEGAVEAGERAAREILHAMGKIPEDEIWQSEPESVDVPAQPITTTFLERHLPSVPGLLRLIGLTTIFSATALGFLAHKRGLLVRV
Description: Inhibition of recombinant human MAO-B expressed in baculovirus infected BTI cells using p-tyramine as substrate by fluorometric assay

Acetylcholinesterase = Acetylcholinesterase (Homo sapiens, UniProt P22303); assay: Inhibition of recombinant human AChE using ATCI as substrate incubated for 5 mins followed by substrate addition and measured after 5 mins by spectrophotometric based Ellman's method
Sequence of Acetylcholinesterase (P22303 whole entry): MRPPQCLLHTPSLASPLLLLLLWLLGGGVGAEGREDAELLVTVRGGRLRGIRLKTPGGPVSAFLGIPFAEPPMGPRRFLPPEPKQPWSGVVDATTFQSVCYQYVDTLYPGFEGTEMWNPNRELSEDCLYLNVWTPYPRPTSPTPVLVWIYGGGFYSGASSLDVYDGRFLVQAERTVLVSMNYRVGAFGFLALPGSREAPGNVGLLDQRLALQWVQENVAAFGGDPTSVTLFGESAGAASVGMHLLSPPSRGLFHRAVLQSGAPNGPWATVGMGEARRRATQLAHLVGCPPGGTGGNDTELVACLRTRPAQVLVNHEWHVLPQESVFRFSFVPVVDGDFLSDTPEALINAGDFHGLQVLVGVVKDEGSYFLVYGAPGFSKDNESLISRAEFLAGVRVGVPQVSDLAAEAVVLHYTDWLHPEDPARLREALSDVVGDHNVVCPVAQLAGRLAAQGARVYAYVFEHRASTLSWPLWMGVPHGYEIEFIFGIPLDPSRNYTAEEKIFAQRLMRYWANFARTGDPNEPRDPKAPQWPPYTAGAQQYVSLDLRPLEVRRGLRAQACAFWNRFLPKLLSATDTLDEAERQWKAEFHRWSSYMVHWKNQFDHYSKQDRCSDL

Mus musculus [2] = assay: (§1) Analgesic activity in formalin-induced nociception CD-1 mouse model assessed as reduction in pain behaviour by measuring less licking of formalin injected hind paw compound administered intraperitoneally prior to formalin induction and measured during early phase (0 to 5 mins after formalin injection) by formalin test; assay type: functional; conditions: CD-1, ip, time 0-5 min
Mus musculus [3] = assay: as §1, with “late” for “early”, “(15” for “(0”, “30” for “5”; assay type: functional; conditions: CD-1, ip, time 15-30 min
Rattus norvegicus [4] = assay: Antiinflammatory activity against Wistar (Krf:WI) rat assessed as reduction in carragenan-induced paw edema at 22.5 mg/kg treated prior to carrageenan challenge and measured after 6 hrs by plethysmometry relative to control; assay type: functional
Rattus norvegicus [5] = assay: Antiinflammatory activity against Wistar (Krf:WI) rat assessed as reduction in carragenan-induced paw edema at 22.5 mg/kg treated prior to carrageenan challenge and measured after 24 hrs by plethysmometry relative to control; assay type: functional
Rattus norvegicus [6] = assay: Antiinflammatory activity against Wistar (Krf:WI) rat assessed as reduction in carragenan-induced paw edema at 30 mg/kg treated prior to carrageenan challenge and measured after 2 hrs by plethysmometry relative to control; assay type: functional
Rattus norvegicus [7] = assay: Antiinflammatory activity against Wistar (Krf:WI) rat assessed as reduction in carragenan-induced paw edema at 30 mg/kg treated prior to carrageenan challenge and measured after 3 hrs by plethysmometry relative to control; assay type: functional
Rattus norvegicus [8] = assay: Antiinflammatory activity against Wistar (Krf:WI) rat assessed as reduction in carragenan-induced paw edema at 30 mg/kg treated prior to carrageenan challenge and measured after 6 hrs by plethysmometry relative to control; assay type: functional
Rattus norvegicus [9] = assay: Analgesic activity in Wistar (Krf:WI) rat assessed as inhibition of carrageenan-induced mechanical inflammatory hyperalgesia by measuring paw withdrawl threshold at 30 mg/kg treated prior to carrageenan challenge and measured after 3 to 24 hrs (reference value: 88.4 to 90.9 %); assay type: functional; set-up: scale not given: the % may be the effect or the level left; conditions: time 3-24 hrs
Rattus norvegicus [10] = assay: Analgesic activity in Wistar (Krf:WI) rat assessed as inhibition of carrageenan-induced mechanical inflammatory hyperalgesia by measuring paw withdrawl threshold at 22.5 mg/kg treated prior to carrageenan challenge and measured upto 24 hrs (reference value: 88.4 to 90.9 %); assay type: functional; set-up: scale not given: the % may be the effect or the level left; conditions: time hrs <=24
Mus musculus [11] = assay: (§2) Antiallodynic activity in oxaliplatin-induced peripheral neuropathy pain CD-1 mouse model assessed as inhibition of early-phase tactile allodynia by measuring pain sensitivity threshold at 15 mg/kg administered with compound intraperitoneally at 3 hrs after oxaliplatin stimulation and measured after 30 mins by von Frey test (reference value: 61.2 %); assay type: functional; set-up: scale not given: the % may be the effect or the level left; conditions: 0.5 h
Mus musculus [12] = assay: as §2, with “30” for “15”; assay type: functional; set-up: scale not given: the % may be the effect or the level left; conditions: 0.5 h
Mus musculus [13] = assay: as §2, with “late-phase” for “early-phase”, “7 days” for “3 hrs”, “65.3%)” for “61.2 %)”; assay type: functional; set-up: scale not given: the % may be the effect or the level left; conditions: 0.5 h
Mus musculus [14] = assay: as §2, with “late-phase” for “early-phase”, “30” for “15”, “7 days” for “3 hrs”, “65.3%)” for “61.2 %)”; assay type: functional; set-up: scale not given: the % may be the effect or the level left; conditions: 0.5 h
Rattus norvegicus [15] = assay: Memory enhancement effect in dizocilpine-induced Wistar (Krf:WI) rat model of amnesia assessed as increase in step through latency administered with compound intraperitoneally and measured after 30 to 45 mins by step-through passive avoidance test; assay type: functional, organism-based; conditions: dose 1.25-5 mg/kg, time 30-45 min
[16] = molecular target: Acetylcholinesterase (Electrophorus electricus) (UniProt O42275); assay: Non-competitive inhibition of Electric eel AChE using ATCI as substrate incubated for 5 mins followed by substrate addition and measured after 5 mins by spectrophotometric based Cornish-Bowden plot analysis; conditions: time 10.0 min
Sequence of Acetylcholinesterase (Electrophorus electricus) (O42275 24-633 limits assumed): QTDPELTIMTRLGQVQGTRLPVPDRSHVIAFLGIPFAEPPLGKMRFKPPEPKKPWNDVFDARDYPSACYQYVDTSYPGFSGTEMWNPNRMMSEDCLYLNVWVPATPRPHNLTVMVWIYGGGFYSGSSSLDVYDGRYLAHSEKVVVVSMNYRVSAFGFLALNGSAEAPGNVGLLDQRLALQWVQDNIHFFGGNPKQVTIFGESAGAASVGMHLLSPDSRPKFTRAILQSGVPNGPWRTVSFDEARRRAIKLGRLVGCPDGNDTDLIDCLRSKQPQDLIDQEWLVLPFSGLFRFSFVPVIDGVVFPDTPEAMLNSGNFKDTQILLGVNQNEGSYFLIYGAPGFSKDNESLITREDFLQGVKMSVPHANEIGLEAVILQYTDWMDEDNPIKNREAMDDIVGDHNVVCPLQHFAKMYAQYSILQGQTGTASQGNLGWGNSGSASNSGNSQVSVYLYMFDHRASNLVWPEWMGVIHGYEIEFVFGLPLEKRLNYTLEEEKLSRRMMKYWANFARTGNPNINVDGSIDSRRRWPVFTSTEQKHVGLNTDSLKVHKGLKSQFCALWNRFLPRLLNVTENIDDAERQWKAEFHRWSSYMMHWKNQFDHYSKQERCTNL

[17] = molecular target: Cholinesterase (Equus caballus) (UniProt P81908); assay: Non-competitive inhibition of equine serum BChE using BTCI as substrate incubated for 5 mins followed by substrate addition and measured after 5 mins by spectrophotometric based Lineweaver-Burk plot analysis; assay type: cell-free; conditions: time 10.0 min
Sequence of Cholinesterase (Equus caballus) (P81908 whole entry): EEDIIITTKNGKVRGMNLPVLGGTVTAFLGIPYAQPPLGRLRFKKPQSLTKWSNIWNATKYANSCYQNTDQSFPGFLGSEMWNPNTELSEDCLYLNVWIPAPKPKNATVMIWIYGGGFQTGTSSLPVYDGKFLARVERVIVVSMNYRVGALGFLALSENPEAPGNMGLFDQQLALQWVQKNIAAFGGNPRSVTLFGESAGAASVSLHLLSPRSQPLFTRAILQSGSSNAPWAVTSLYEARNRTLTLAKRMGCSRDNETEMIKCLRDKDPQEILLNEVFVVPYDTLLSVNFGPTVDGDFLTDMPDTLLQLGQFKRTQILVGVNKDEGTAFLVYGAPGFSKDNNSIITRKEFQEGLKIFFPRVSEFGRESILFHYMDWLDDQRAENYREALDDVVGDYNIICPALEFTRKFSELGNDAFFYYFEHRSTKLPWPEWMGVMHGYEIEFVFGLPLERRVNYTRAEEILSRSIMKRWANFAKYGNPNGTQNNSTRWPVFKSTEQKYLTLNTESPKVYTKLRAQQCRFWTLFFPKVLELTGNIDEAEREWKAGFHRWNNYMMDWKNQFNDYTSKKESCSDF

Cholinesterase [18] = molecular target: Cholinesterase (Equus caballus, UniProt P81908)
Sequence of Cholinesterase (Equus caballus, UniProt P81908) (P81908 whole entry): as above
Description: Inhibition of equine serum BChE using BTCI as substrate incubated for 5 mins followed by substrate addition and measured after 5 mins by spectrophotometric based Ellman's method

Cholinesterase [19] = molecular target: Cholinesterase (Homo sapiens, UniProt P06276)
Sequence of Cholinesterase (Homo sapiens, UniProt P06276) (P06276 whole entry): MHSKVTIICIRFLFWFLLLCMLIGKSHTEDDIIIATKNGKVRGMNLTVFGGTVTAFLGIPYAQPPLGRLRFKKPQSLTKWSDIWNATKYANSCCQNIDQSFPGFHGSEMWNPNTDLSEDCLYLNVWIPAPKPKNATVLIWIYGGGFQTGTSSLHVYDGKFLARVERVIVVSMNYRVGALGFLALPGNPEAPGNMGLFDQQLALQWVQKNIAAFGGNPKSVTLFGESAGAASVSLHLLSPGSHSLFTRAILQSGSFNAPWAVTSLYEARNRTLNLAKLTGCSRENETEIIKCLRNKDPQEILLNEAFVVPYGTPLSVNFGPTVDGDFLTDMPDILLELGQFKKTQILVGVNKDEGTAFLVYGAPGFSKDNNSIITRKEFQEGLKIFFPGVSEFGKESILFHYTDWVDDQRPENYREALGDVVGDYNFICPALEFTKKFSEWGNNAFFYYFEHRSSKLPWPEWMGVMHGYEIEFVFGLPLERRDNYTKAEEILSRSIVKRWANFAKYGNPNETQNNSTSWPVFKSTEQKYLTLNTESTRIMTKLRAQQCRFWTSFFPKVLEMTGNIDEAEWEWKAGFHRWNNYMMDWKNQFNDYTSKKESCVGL
Description: Inhibition of human BuChE by spectrophotometric based Ellman's method

MAO-A = molecular target: T2, MAO-A (Homo sapiens, UniProt P21397); assay: in vitro; conditions: probe p-tyramine
T2 sequence (P21397 whole entry): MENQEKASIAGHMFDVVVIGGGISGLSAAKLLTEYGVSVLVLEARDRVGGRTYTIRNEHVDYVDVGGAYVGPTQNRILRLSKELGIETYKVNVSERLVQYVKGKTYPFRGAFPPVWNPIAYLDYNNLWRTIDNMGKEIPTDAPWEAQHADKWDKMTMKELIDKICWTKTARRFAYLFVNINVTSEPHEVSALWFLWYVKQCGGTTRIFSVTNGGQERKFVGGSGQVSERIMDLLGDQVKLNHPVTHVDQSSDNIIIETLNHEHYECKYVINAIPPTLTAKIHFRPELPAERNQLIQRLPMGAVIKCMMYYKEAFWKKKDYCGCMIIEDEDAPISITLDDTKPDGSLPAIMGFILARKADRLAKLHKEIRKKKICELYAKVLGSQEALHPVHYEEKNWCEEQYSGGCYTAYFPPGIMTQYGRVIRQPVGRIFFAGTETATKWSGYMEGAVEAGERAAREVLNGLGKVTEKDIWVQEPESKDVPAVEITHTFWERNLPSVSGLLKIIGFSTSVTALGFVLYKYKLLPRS
Description: Inhibition of recombinant human MAO-A expressed in baculovirus infected BTI cells at 1 uM using p-tyramine as substrate by fluorometric assay relative to control

in vitro = conditions: PAMPA, pH 7.4
Description: Permeability of compound in PBS buffer assessed as permeability coefficient at pH 7.4 at 200 uM incubated for 5 hrs by PAMPA based LC-MS analysis

Histamine H3 receptor = Histamine H3 receptor (Homo sapiens, UniProt Q9Y5N1); assay: biochemical
Sequence of Histamine H3 receptor (Q9Y5N1 whole entry): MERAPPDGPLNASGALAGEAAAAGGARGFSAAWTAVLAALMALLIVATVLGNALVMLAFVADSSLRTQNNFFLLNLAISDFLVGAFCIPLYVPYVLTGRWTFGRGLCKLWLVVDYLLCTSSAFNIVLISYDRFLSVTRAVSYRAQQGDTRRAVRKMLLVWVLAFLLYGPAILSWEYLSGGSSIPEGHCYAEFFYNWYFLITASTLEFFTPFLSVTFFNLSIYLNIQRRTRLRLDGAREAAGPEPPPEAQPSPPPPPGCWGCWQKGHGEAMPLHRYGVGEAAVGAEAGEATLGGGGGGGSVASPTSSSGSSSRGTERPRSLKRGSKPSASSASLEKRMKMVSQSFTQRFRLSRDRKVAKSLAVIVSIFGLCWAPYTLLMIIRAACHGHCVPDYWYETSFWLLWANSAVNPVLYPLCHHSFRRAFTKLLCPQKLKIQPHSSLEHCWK
Description: Displacement of [3H]N-alpha-methylhistamine from recombinant human histamine H3 receptor expressed in CHO-K1 cells by microbeta scintillation analysis

Structure (SMILES): O=c1c2ccccc2oc2ccc(OCCCCCN3CCCCCC3)cc12
- IC50 [1]: 0.775 µM
- IC50 (Acetylcholinesterase): 0.392 µM
- ED50 (Mus musculus [2]): 24.7 mg/kg
- ED50 (Mus musculus [3]): 11.3 mg/kg
- inhibition in vivo at 22.5 mg/kg (Rattus norvegicus [4]): 19.4%
- inhibition in vivo at 22.5 mg/kg (Rattus norvegicus [5]): 22.4%
- inhibition in vivo at 30 mg/kg (Rattus norvegicus [6]): 53.3%
- inhibition in vivo at 30 mg/kg (Rattus norvegicus [7]): 52.1%
- inhibition in vivo at 30 mg/kg (Rattus norvegicus [8]): 44.9%
- Activity (Rattus norvegicus [9]): 118%
- Activity (Rattus norvegicus [10]): 94.6%
- Activity (Mus musculus [11]): 88.5%
- Activity (Mus musculus [12]): 95.6%
- Activity (Mus musculus [13]): 85.9%
- Activity (Mus musculus [14]): 100%
- Activity (Rattus norvegicus [15]): Dose-dependent effect
- inhibition [16]: Active
- inhibition [17]: Active
- IC50 (Cholinesterase [18]): 0.88 µM
- IC50 (Cholinesterase [19]): 1.28 µM
- inhibition at 1 µM (MAO-A): 4%
- Papp at 5 h, 200 µM (in vitro): 5.6 ×10⁻⁶ cm/s
- Ki (Histamine H3 receptor): 0.17 µM

From ChEMBL document CHEMBL4706551, “Rational design of new multitarget histamine H receptor ligands as potential candidates for treatment of Alzheimer's disease” (Eur J Med Chem, 2020)
